Reference: ChEMBL document CHEMBL1201862, “PubChem BioAssay data set” (2004)
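Five concentrations, 48 hours, 96-well plates. At the GI50, growth is halved.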 Activity calls are given as the source filed them. Cut-off read from the data, not from the text of the source: active = GI50 up to about 1.1 µM and inactive = higher.

Experiments:
Experiment in all cases: growth of human tumour cells (NCI), 48 h
HCC 2998 = system: HCC 2998
DU-145 = system: DU-145
BT-549 = system: BT-549
HT-29 = system: HT-29
ACHN = system: ACHN
OVCAR-3 = system: OVCAR-3
NCI/ADR-RES = system: NCI/ADR-RES
IGROV-1 = system: IGROV-1
MOLT-4 = system: MOLT-4
MCF7 = system: MCF7
OVCAR-5 = system: OVCAR-5
UACC-62 = system: UACC-62
SF-295 = system: SF-295
T47D = system: T47D
TK-10 = system: TK-10
NCI-H522 = system: NCI-H522
NCI-H23 = system: NCI-H23
SK-OV-3 = system: SK-OV-3
UO-31 = system: UO-31
SN12C = system: SN12C
HCT-116 = system: HCT-116
PC-3 = system: PC-3
MDA-MB-231 = system: MDA-MB-231
MDA-MB-435 = system: MDA-MB-435
SK-MEL-28 = system: SK-MEL-28
HCT-15 = system: HCT-15
A549 = system: A549
KM12 = system: KM12
CCRF-CEM = system: CCRF-CEM
HOP-92 = system: HOP-92
M14 = system: M14
A498 = system: A498
Hs-578T = system: Hs-578T
SF-268 = system: SF-268
RXF 393 = system: RXF 393
CAKI-1 = system: CAKI-1
OVCAR-8 = system: OVCAR-8
SK-MEL-2 = system: SK-MEL-2
SNB-75 = system: SNB-75
RPMI-8226 = system: RPMI-8226
EKVX = system: EKVX
SR = system: SR
NCI-H226 = system: NCI-H226
SF-539 = system: SF-539
OVCAR-4 = system: OVCAR-4
LOX IMVI = system: LOX IMVI
COLO 205 = system: COLO 205
Malme-3M = system: Malme-3M
SNB-19 = system: SNB-19
UACC-257 = system: UACC-257
K562 = system: K562
SW-620 = system: SW-620
HOP-62 = system: HOP-62
NCI-H460 = system: NCI-H460
SK-MEL-5 = system: SK-MEL-5
HL-60 = system: HL-60
786-0 = system: 786-0
U-251 = system: U-251

Measured: GI50

Nc1nc(N)c2ncn(-c3ccccc3)c2n1
> 100 µM: HCT-15
inactive: HCC 2998 48.4 µM | DU-145 > 100 µM | BT-549 > 100 µM | HT-29 > 100 µM | ACHN > 100 µM | OVCAR-3 89.9 µM | NCI/ADR-RES > 100 µM | IGROV-1 36.3 µM | MOLT-4 29.6 µM | MCF7 63.8 µM | OVCAR-5 > 100 µM | UACC-62 71 µM | SF-295 > 100 µM | T47D > 100 µM | TK-10 > 100 µM | NCI-H522 > 100 µM | NCI-H23 > 100 µM | SK-OV-3 > 100 µM | UO-31 68.2 µM | SN12C 88.3 µM | HCT-116 > 100 µM | PC-3 > 100 µM | MDA-MB-231 > 100 µM | MDA-MB-435 > 100 µM | SK-MEL-28 > 100 µM | A549 48.9 µM | KM12 24.2 µM | CCRF-CEM 23.7 µM | HOP-92 > 100 µM | M14 > 100 µM | A498 > 100 µM | Hs-578T 52.6 µM | SF-268 > 100 µM | RXF 393 57.9 µM | CAKI-1 82.6 µM | OVCAR-8 > 100 µM

Cc1cc(C)c2c(O)cc(-c3ccc(F)cc3)nc2n1
inactive: HCC 2998 31.3 µM | SK-MEL-2 38.7 µM | DU-145 66.1 µM | BT-549 65.8 µM | HT-29 39.2 µM | ACHN 39.7 µM | SNB-75 27.2 µM | NCI/ADR-RES 47.6 µM | IGROV-1 32.4 µM | MOLT-4 29.9 µM | RPMI-8226 24.8 µM | MCF7 30.7 µM | EKVX 48.5 µM | OVCAR-5 80.5 µM | SR 23.3 µM | UACC-62 33.7 µM | T47D 37.8 µM | TK-10 95.1 µM | NCI-H522 30.3 µM | NCI-H226 35.6 µM | NCI-H23 38.6 µM | SF-539 > 100 µM | SK-OV-3 87.9 µM | OVCAR-4 17.6 µM | UO-31 23.9 µM | SN12C 50.7 µM | LOX IMVI 45.6 µM | MDA-MB-231 63 µM | COLO 205 32.1 µM | Malme-3M 42.9 µM | SK-MEL-28 37.3 µM | SNB-19 > 100 µM | UACC-257 33.1 µM | A549 44.6 µM | KM12 20.7 µM | CCRF-CEM 26.7 µM | HOP-92 29.9 µM | M14 45.7 µM | K562 32.1 µM | A498 27.4 µM | Hs-578T 69 µM | SW-620 34.4 µM | SF-268 42.1 µM | CAKI-1 33.6 µM | HOP-62 > 100 µM | OVCAR-8 76.7 µM
47.1 µM: HCT-15

Cc1cn(CC2=NC3CCCCC3N2)c(=O)[nH]c1=O (stereo unspecified)
> 100 µM: HCT-15
inactive: HCC 2998 > 100 µM | SK-MEL-2 > 100 µM | DU-145 > 100 µM | BT-549 > 100 µM | NCI-H460 > 100 µM | HT-29 > 100 µM | ACHN > 100 µM | SNB-75 > 100 µM | NCI/ADR-RES > 100 µM | IGROV-1 > 100 µM | SK-MEL-5 > 100 µM | MOLT-4 > 100 µM | RPMI-8226 > 100 µM | MCF7 > 100 µM | EKVX > 100 µM | OVCAR-5 > 100 µM | SR > 100 µM | HL-60 > 100 µM | UACC-62 > 100 µM | SF-295 > 100 µM | T47D > 100 µM | TK-10 > 100 µM | NCI-H522 > 100 µM | NCI-H226 > 100 µM | NCI-H23 > 100 µM | SK-OV-3 > 100 µM | 786-0 > 100 µM | UO-31 > 100 µM | SN12C > 100 µM | HCT-116 > 100 µM | LOX IMVI > 100 µM | PC-3 > 100 µM | MDA-MB-231 > 100 µM | COLO 205 > 100 µM | Malme-3M > 100 µM | SK-MEL-28 > 100 µM | SNB-19 > 100 µM | UACC-257 > 100 µM | A549 > 100 µM | CCRF-CEM > 100 µM | HOP-92 > 100 µM | M14 > 100 µM | K562 > 100 µM | A498 > 100 µM | Hs-578T > 100 µM | SW-620 > 100 µM | SF-268 > 100 µM | RXF 393 > 100 µM | U-251 > 100 µM | HOP-62 > 100 µM | OVCAR-8 > 100 µM
